{"source": "paper PMC12561408", "about": "“AI‐Driven De Novo Design of Ultra Long‐Acting GLP‐1 Receptor Agonists” (Advanced Science, 2025)", "key": {"[1]": {"conditions": "rat, in vivo; cited from earlier work", "text": "According to a study by Novo Nordisk,^[ [39] ^] […] While the fatty acid chai ..."}, "in vivo": {"assay": "in vivo", "conditions": "male, SD, rat, 0.05 mg/kg; for level at 72 h: Plasma Conc. at 72 h; for level at 96 h: Plasma Conc. at 96 h", "method": "B) half‐life (T1/2). C) the maximum plasma concentration (Cmax). […] F) time to Maximum Concentration (Tmax). […] Data were analyzed with the two‐sided Student's unpaired t test. ^* p < 0.05, ^** p < 0.01, ^*** p < 0.001.\nPlasma samples were analyzed using LC‐MS/MS (Waters XEVO TQ‐XS), and pharmacokinetic parameters such as T1/2, Cmax, Tmax, AUC0‐t, and MRT0‐t were calculated using WinNonlin. The sample preparation and detailed information of LC‐MS/MS are shown in Table S5 (Supporting Information)."}}}
{"molecule": "CC[C@H](C)[C@H](NC(=O)[C@H](Cc1ccccc1)NC(=O)[C@H](CCC(=O)O)NC(=O)[C@H](CCCCNC(=O)COCCOCCNC(=O)COCCOCCNC(=O)CC[C@H](NC(=O)CCCCCCCCCCCCCCCCC(=O)O)C(=O)O)NC(=O)[C@H](C)NC(=O)[C@H](C)NC(=O)[C@H](CCC(N)=O)NC(=O)CNC(=O)[C@H](CCC(=O)O)NC(=O)[C@H](CC(C)C)NC(=O)[C@H](Cc1ccc(O)cc1)NC(=O)[C@H](CO)NC(=O)[C@H](CO)NC(=O)[C@@H](NC(=O)[C@H](CC(=O)O)NC(=O)[C@H](CO)NC(=O)[C@@H](NC(=O)[C@H](Cc1ccccc1)NC(=O)[C@@H](NC(=O)CNC(=O)[C@H](CCC(=O)O)NC(=O)C(C)(C)NC(=O)[C@@H](N)Cc1cnc[nH]1)[C@@H](C)O)[C@@H](C)O)C(C)C)C(=O)N[C@@H](C)C(=O)N[C@@H](Cc1c[nH]c2ccccc12)C(=O)N[C@@H](CC(C)C)C(=O)N[C@H](C(=O)N[C@@H](CCCNC(=N)N)C(=O)NCC(=O)N[C@@H](CCCNC(=N)N)C(=O)NCC(=O)O)C(C)C", "note": "[Semaglutide]", "values": [{"measurement": "half‐life in rats (literature)", "setting": "[1]", "value": "7 to 8", "unit": "h"}, {"measurement": "level at 2 h", "setting": "in vivo; Plasma Conc. at 2 h, animal 1", "value": 241, "unit": "ng/mL"}, {"measurement": "level at 2 h", "setting": "in vivo; Plasma Conc. at 2 h, animal 2", "value": 262, "unit": "ng/mL"}, {"measurement": "level at 2 h", "setting": "in vivo; Plasma Conc. at 2 h, animal 3", "value": 272, "unit": "ng/mL"}, {"measurement": "level at 4 h", "setting": "in vivo; Plasma Conc. at 4 h, animal 1", "value": 308, "unit": "ng/mL"}, {"measurement": "level at 4 h", "setting": "in vivo; Plasma Conc. at 4 h, animal 2", "value": 275, "unit": "ng/mL"}, {"measurement": "level at 4 h", "setting": "in vivo; Plasma Conc. at 4 h, animal 3", "value": 339, "unit": "ng/mL"}, {"measurement": "level at 8 h", "setting": "in vivo; Plasma Conc. at 8 h, animal 1", "value": 321, "unit": "ng/mL"}, {"measurement": "level at 8 h", "setting": "in vivo; Plasma Conc. at 8 h, animal 2", "value": 327, "unit": "ng/mL"}, {"measurement": "level at 8 h", "setting": "in vivo; Plasma Conc. at 8 h, animal 3", "value": 341, "unit": "ng/mL"}, {"measurement": "level at 12 h", "setting": "in vivo; Plasma Conc. at 12 h, animal 1", "value": 283, "unit": "ng/mL"}, {"measurement": "level at 12 h", "setting": "in vivo; Plasma Conc. at 12 h, animal 2", "value": 278, "unit": "ng/mL"}, {"measurement": "level at 24 h", "setting": "in vivo; Plasma Conc. at 24 h, animal 1", "value": 133, "unit": "ng/mL"}, {"measurement": "level at 24 h", "setting": "in vivo; Plasma Conc. at 24 h, animal 2", "value": 135, "unit": "ng/mL"}, {"measurement": "level at 48 h", "setting": "in vivo; Plasma Conc. at 48 h, animal 1", "value": 12.9, "unit": "ng/mL"}, {"measurement": "level at 48 h", "setting": "in vivo; Plasma Conc. at 48 h, animal 2", "value": 13.4, "unit": "ng/mL"}, {"measurement": "level at 72 h", "setting": "in vivo; animal 1", "value": 1.5, "unit": "ng/mL"}, {"measurement": "level at 72 h", "setting": "in vivo; animal 2", "value": 1.8, "unit": "ng/mL"}, {"measurement": "level at 96 h", "setting": "in vivo; animal 1", "value": 1, "unit": "ng/mL"}, {"measurement": "level at 96 h", "setting": "in vivo; animal 2", "value": 0.3, "unit": "ng/mL"}, {"measurement": "level at 2 h", "setting": "in vivo; Plasma concentration at 2 h (mean)", "value": 258, "unit": "ng/mL"}, {"measurement": "level at 4 h", "setting": "in vivo; Plasma concentration at 4 h (mean)", "value": 307, "unit": "ng/mL"}, {"measurement": "level at 8 h", "setting": "in vivo; Plasma concentration at 8 h (mean)", "value": 330, "unit": "ng/mL"}, {"measurement": "level at 12 h", "setting": "in vivo; Plasma concentration at 12 h (mean)", "value": 280, "unit": "ng/mL"}, {"measurement": "level at 24 h", "setting": "in vivo; Plasma concentration at 24 h (mean)", "value": 132, "unit": "ng/mL"}, {"measurement": "level at 48 h", "setting": "in vivo; Plasma concentration at 48 h (mean)", "value": 13.9, "unit": "ng/mL"}]}
